As usually defined, the logD is lipophilicity at a set pH, counting ionised and neutral species. Read a high logD as higher lipophilicity. As usually defined, the half-life is the time in which the quantity being followed falls by half.

The structures appear in SMILES notation. Read-outs that look alike come from different tables or passages of the source.

The values below come from publication PMC10384862, “[^212Pb]Pb-eSOMA-01: A Promising Radioligand for Targeted Alpha Therapy of Neuroendocrine Tumors” (Pharmaceuticals, 2023).

A short description of series [1]: LogD7.4 by shake-flask method (n-octanol/PBS). The series is classed as physicochemical. The note with it: ^203Pb-labeled compound; n-octanol/PBS pH 7.4; n = 3. How it is done:
Distribution coefficients (LogD7.4) were determined by the shake-flask method. A sample containing the ^203Pb-labeled compound (~1 MBq) was added to a vial containing PBS (600 µL, pH 7.4) and n-octanol (600 µL). The vial was vortexed vigorously and then centrifuged at 10,000 rpm for 10 min for phase separation. Samples (100 µL) of the n-octanol and aqueous phases were taken and measured by a gamma counter. The LogD7.4 value was calculated by using the equation: LogD7.4 = log [(counts in the n-octanol phase)/(counts in the aqueous phase)]. Measurements were performed in triplicate.

The nature of series [2]: In vitro stability in PBS. The series is classed as physicochemical. To be noted: phosphate buffered saline, pH 7.4; ^203Pb-labeled; 24 h; 37 °C; n = 1; read-out: Stability in PBS, intact labeled ligand. How it is done: The ^203Pb-labeled compounds (~ 2 MBq) or the ^212Pb-labeled compounds (~ 70 kBq) were incubated in 300 µL of phosphate buffered saline (PBS; 0.1 M, pH 7.4) or mouse serum at 37 °C. The stability of the radiolabeled peptides was monitored at 1, 4, and 24 h post-incubation. The samples in PBS were directly analyzed by radio-HPLC without any pretreatment. However, samples of mouse serum were mixed with an equal volume of acetonitrile to precipitate the proteins. The solution was centrifuged twice for 5 min at 13,000 rpm, and the supernatant was analyzed by radio-HPLC using Method 1 for lead-203 and Method 2 for lead-212.

The next series has as its system AR42J tumors. To be noted: in vivo, cited from earlier work.
Series [3] is described as follows: SPECT/CT imaging with 203Pb-labeled ligands. The note with it: mouse; for tissue uptake per volume / tissue uptake per volume at 1 h / tissue uptake per volume at 24 h: male, Balb/c nu/nu, tumor, iv, 0.5 nmol, total radioactivity, read-out: Tumor uptake from SPECT images; for tissue uptake per volume: 1, 4 and 24 h after administration, n = 4; for tissue uptake per volume at 1 h: 1 h post-injection; for tissue uptake per volume at 24 h: 24 h post-injection; for half-life: kidneys, intravenous, ^203Pb-labeled, H69 tumor-bearing mice, read-out: Renal clearance half-life (converted). The series is classed as in vivo. Here is the method: SPECT/CT imaging was performed in H69-xenografted Balb/c nu/nu mice at 1, 4, and 24 h after the administration of [^203Pb]Pb-eSOMA-01 or [^203Pb]Pb-eSOMA-02. Tumors were visible by SPECT/CT for both radioligands (Figure 3A,B). […] They increased over time for [^203Pb]Pb-eSOMA-01 (0.5 ± 0.03 at 4 h to 0.70 ± 0.11 at 24 h), while they remained nearly constant for [^203Pb]Pb-eSOMA-02 (0.30 ± 0.09 at 4 h and 0.4 ± 0.03 at 24 h).
(§1) Six-week-old male Balb/c nu/nu-specific and opportunistic pathogen-tree (SOPF) mice (Janvier Labs, Le Genest-Saint-Isle, France) were housed in individually ventilated cages, with four mice per cage. Upon arrival, the mice were acclimated for 1 week with access to food and water ad libitum. Mice were subcutaneously inoculated on the right shoulder with NCI-H69 cells (5 × 10^6 cells suspended in 100 μL of 1/3 Matrigel (Corning Inc.; Corning, NY, USA) and 2/3 Hank’s balanced salt solution (Gibco; Paisley, UK). NCI-H69 xenografts were allowed to grow for 3 weeks. Tumor sizes were 391 ± 173 mm^3 at the start of the studies.
Mice (n = 4 per compound) were intravenously injected in the tail vein with 100 μL of [^203Pb]Pb-eSOMA-01 (12.31 ± 1.44 MBq, 0.5 nmol) or [^203Pb]Pb-eSOMA-02 (13.06 ± 1.44 MBq, 0.5 nmol) containing Kolliphor HS 15 (Merck; Haarlerbergweg, The Netherlands) in PBS (0.06 mg/mL). At 1, 4, and 24 h post-injection (p.i.), mice were imaged in a prone position on a heated bed under 2% isoflurane/O2 anesthesia in a dedicated small-animal PET/SPECT/CT VECTOR5 scanner (MILabs B.V.; Utrecht, The Netherlands) with a high-sensitivity pinhole collimator (HE-GP-M, 1.6 mm pinholes). Whole-body SPECT images were acquired over one frame of 20 min (for 1 and 4 h time points) and two frames of 20 min (for 24 h time points) using a spiral scan in normal scan mode, in list-mode acquisition. This was followed by a whole-body normal CT scan (angle step 0.75 degrees, 50 kV tube voltage, 0.21 mA tube current). Reconstruction of the SPECT images was performed using the similarity-regulated SROSEM method (MILabs Rec 11.00 software), performing five iterations with a voxel size of 0.4 mm, using 72 keV ± 30% and 280 keV ± 8% energy windows for lead-203. Reconstructed volumes of SPECT scans were post-filtered with an isotropic three-dimensional Gaussian filter of 1 mm full width at half-maximum. Image processing and analyses of the reconstructed data were performed using the PMOD image analysis software version 3.9 (PMOD Technologies; Zurich, Switzerland) to calculate the percentage of injected dose per mL (% ID/mL). An Eppendorf tube filled with a solution of lead-203 of known activity was measured to determine the calibration factor.

The nature of series [4]: Ex vivo biodistribution with lead-203. The series is classed as in vivo, mouse. The note with it: mouse, 24 h post-injection. How it is done: as §1
(§2) To determine the biodistribution of the compounds after imaging (1, 4, and 24 h p.i.), blood was collected via retro-orbital puncture under isoflurane/O2 anesthesia, after which the mice were sacrificed via cervical dislocation. The tumor and organs of interest (heart, lungs, liver, spleen, stomach, large intestine, small intestine, pancreas, kidneys, muscle, skin, and bone) were excised, washed in PBS, blotted dry, and collected into tubes. The blood, tumor, and relevant organs were weighed and measured with a gamma counter. The percentage of injected dose per gram (% ID/g) was determined for each tissue sample and corrected for both the injected volume and the % ID present at the injection site (the tail).

Another series has as its system H69 tumor bearing mice. As to the kind of experiment: Ex vivo biodistribution with lead-203. The series is classed as in vivo, mouse. The note with it: after 4 h (so in the source); p < 0.05. How it is done: as §1, §2
Setting [5] is: blood, n = 4, read-out: Blood uptake.
Setting [6] is: bone, n = 4, read-out: Bones uptake.
The mark [7] stands for this setting: heart, n = 4, read-out: Heart uptake.
Where [8] appears, read: kidneys, n = 4, read-out: Kidneys uptake.
The mark [9] stands for this setting: large intestine, n = 4, read-out: Large Intestine uptake.
Setting [10] is: liver, n = 4, read-out: Liver uptake.
Setting [11] is: lungs, n = 4, read-out: Lungs uptake.
The mark [12] stands for this setting: muscle, n = 4, read-out: Muscle uptake.
The mark [13] stands for this setting: non-target organs other than kidneys, intravenous, organs other than kidneys, read-out: Uptakes in all the other non-target organs.
Where [14] appears, read: pancreas, n = 4, read-out: Pancreas uptake.
Setting [15] is: skin, n = 4, read-out: Skin uptake.
Setting [16] is: small intestine, n = 4, read-out: Small Intestine uptake.
[17] abbreviates: spleen, n = 4, read-out: Spleen uptake.
The mark [18] stands for this setting: stomach, n = 4, read-out: Stomach uptake.
[19] abbreviates: tumor, n = 4, read-out: Tumor uptake.

In series [1], `C[C@@H](O)[C@H](NC(=O)[C@@H]1CSSC[C@H](NC(=O)[C@@H](Cc2ccccc2)NC(=O)CN2CCN(CC(N)=O)CCN(CC(N)=O)CCN(CC(N)=O)CC2)C(=O)N[C@@H](Cc2ccc(O)cc2)C(=O)N[C@H](Cc2c[nH]c3ccccc23)C(=O)N[C@@H](CCCCN)C(=O)N[C@@H]([C@@H](C)O)C(=O)N1)C(=O)O` [[^203Pb]Pb-DOTAM-TATE, metal not drawn, reference compound] showed a pH-dependent lipophilicity (logD) of -1.41 ± 0.01. Further, the remaining at 24 h in series [2] is greater than 97%. The Tumor uptake in the series with AR42J tumors (1 h) is on record as 13 % ID/g. For the same molecule, in the series with AR42J tumors (24 h), the Uptake in kidneys is ~ 13 % ID/g.
In series [1], `C[C@@H](O)[C@H](NC(=O)[C@@H]1CSSC[C@H](NC(=O)[C@@H](Cc2ccccc2)NC(=O)[C@H]2CC[C@H](CNC(=O)CN3CCN(CC(N)=O)CCN(CC(N)=O)CCN(CC(N)=O)CC3)CC2)C(=O)N[C@@H](Cc2ccc(O)cc2)C(=O)N[C@H](Cc2c[nH]c3ccccc23)C(=O)N[C@@H](CCCCN)C(=O)N[C@@H]([C@@H](C)O)C(=O)N1)C(=O)O` [[^203Pb]Pb-eSOMA-01, metal not drawn] returned a pH-dependent lipophilicity (logD) of -1.99 ± 0.03. Moreover, the remaining at 24 h in series [2] is greater than 97%. Further, the tissue uptake per volume in series [3] lay within 3 to 4 %ID/mL. For the same molecule, the tissue uptake per volume at 1 h in series [3] is roughly 4 %ID/mL. Moreover, the tissue uptake per volume at 24 h in series [3] fell in the range of 2 to 3 %ID/mL. Besides, the half-life in series [3] was 14.7 ± 2.4 h. Further, the tissue uptake at 24 h in series [4] (setting [5]) was determined as 0.05 ± 0.02 %ID/g; in series [4] (setting [6]), 0.27 ± 0.02 %ID/g; in series [4] (setting [7]) it was 0.05 ± 0.01 %ID/g; in series [4] (setting [8]), 7.44 ± 1.17 %ID/g; in series [4] (setting [9]), 0.34 ± 0.08 %ID/g; in series [4] (setting [10]) it was 0.86 ± 0.1 %ID/g. For the same molecule, the tissue uptake at 24 h in series [4] (setting [11]) is 0.36 ± 0.05 %ID/g; in series [4] (setting [12]), 0.18 ± 0.03 %ID/g; in series [4] (setting [13]), less than 1 %ID/g; in series [4] (setting [14]), 0.12 ± 0.02 %ID/g; in series [4] (setting [15]) it was 0.03 ± 0.02 %ID/g; in series [4] (setting [16]), 0.12 ± 0.02 %ID/g. In addition, the results for the tissue uptake at 24 h in series [4] (setting [17]), in series [4] (setting [18]) and in series [4] (setting [19]) were 0.22 ± 0.03 %ID/g, 0.75 ± 0.34 %ID/g and 2.89 ± 0.84 %ID/g, respectively.
`C[C@@H](O)[C@H](NC(=O)[C@@H]1CSSC[C@H](NC(=O)[C@@H](Cc2ccccc2)NC(=O)CN2CCC(NC(=O)CN3CCN(CC(N)=O)CCN(CC(N)=O)CCN(CC(N)=O)CC3)CC2)C(=O)N[C@@H](Cc2ccc(O)cc2)C(=O)N[C@H](Cc2c[nH]c3ccccc23)C(=O)N[C@@H](CCCCN)C(=O)N[C@@H]([C@@H](C)O)C(=O)N1)C(=O)O` [[^203Pb]Pb-eSOMA-02, metal not drawn] gave a pH-dependent lipophilicity (logD) in series [1] of -1.88 ± 0.03. For the same molecule, in series [2], the remaining at 24 h was greater than 97%. Further, in series [3], the tissue uptake per volume fell in the range of 3 to 4 %ID/mL. Also, the tissue uptake per volume at 1 h in series [3] is roughly 4 %ID/mL. In addition, the tissue uptake per volume at 24 h in series [3] fell in the range of 2 to 3 %ID/mL. In series [3], the half-life is 24.2 ± 4.5 h. Also, the tissue uptake at 24 h stood at 0.17 ± 0.11 %ID/g in series [4] (setting [5]); 0.67 ± 0.04 %ID/g in series [4] (setting [6]); 0.09 ± 0.02 %ID/g in series [4] (setting [7]); 12.6 ± 0.02 %ID/g in series [4] (setting [8]); 0.41 ± 0.06 %ID/g in series [4] (setting [9]); 1.11 ± 0.05 %ID/g in series [4] (setting [10]). In addition, the tissue uptake at 24 h in series [4] (setting [11]) is 0.53 ± 0.04 %ID/g; in series [4] (setting [12]) it was 0.04 ± 0.07 %ID/g; in series [4] (setting [13]), less than 1 %ID/g; in series [4] (setting [14]) it was 0.83 ± 0.96 %ID/g; in series [4] (setting [15]), 0.43 ± 0.09 %ID/g; in series [4] (setting [16]) it was 0.24 ± 0.03 %ID/g. Further, the tissue uptake at 24 h is 0.61 ± 0.15 %ID/g in series [4] (setting [17]), 0.67 ± 0.19 %ID/g in series [4] (setting [18]) and 2.54 ± 0.36 %ID/g in series [4] (setting [19]). The “More uptake in the kidneys compared to [203Pb]Pb-eSOMA-01” value in the series with H69 tumor bearing mice is recorded as “around 41%”.
